{"source": "patent US20050182242A1", "about": "“Global analysis of protein activities using proteome chips” (priority 2001, published 2005)", "tested_on": "total yeast genomic DNA", "assay": "Yeast proteome chip probed with labeled genomic DNA", "type": "binding", "details": "Cy3-labeled genomic DNA, visual inspection", "excerpt": "Protein-DNA and protein-RNA interactions are important for many fundamental biological functions such as transcription regulation, chromosome segregation and maintenance, and RNA transport and processing (Williamson, 2000, Nat. Struct. Biol. 7(10):834-7). To explore the possibility of using a proteome chip to identify proteins that bind to DNA or RNA molecules, total yeast genomic DNA was labeled using Cy3-CTP and Klenow fragment, and polyA^+ was labeled using a biotinylated psoralen-derivative (31). Each probe was incubated with a different proteome chip (FIG. 3A).\nThe protein-nucleic acid interaction was assayed as follows. The nucleic acid robes were labeled as described by Winzeler et al. (1999, Science 285:901). Blocked proteome chips were washed three to five times in PBS buffer, and the extra liquid on the glass surface was removed by tapping the slides vertically on a KIMWIPE™. 200 μl of labeled nuclei acid probe ([…] poly(dC/dG); 100-300 mM NaCl; 50-300 mM HEPES, pH 7.0-8.5; 10 mM MgCl2) was added to the proteome chip and immediately covered by a hydrophobic plastic cover slip (GRACE BIO-LABS™, USA). After trapped air bubbles were removed, the chip was incubated in a humidity chamber in the dark at room temperature (“RT”) for one hour. To remove the cover slip, the chip was immersed into large volume of PBS buffer(>50 ml), so that the slip would float away. […]", "data": [{"substance": "Gcd11p: gamma subunit of translation initiation factor eIF2", "values": [{"measurement": "binding of genomic DNA probe", "value": "tested positive"}]}]}
